Results from ChEMBL document CHEMBL1157539, “Thousands of chemical starting points for antimalarial lead identification” (Nature, 2010).

Each compound was assayed on Plasmodium falciparum (assay: GSK_TCMDC: Inhibition of Plasmodium falciparum 3D7 in whole erythrocytes, using parasite LDH activity as an index of growth.). Settings: Plasmodium falciparum, 3D7.
Assay type: functional, organism-based

First: Cn1c(=O)c(-c2c(Cl)cccc2Cl)cc2cnc(Nc3ccc(N4CCOCC4)cc3)nc21
Second: COc1ccc2c(Nc3ccc(N4CCN(C)CC4)cc3)cc(C)nc2c1
The XC50 of the first is 4.5-fold lower: 161 nM for the first, 719 nM for the second.

`Cc1ccccc1CNc1ccc2nc(N)nc(N)c2c1` and `COc1cccc(Cc2cnc3nc(N)nc(N)c3c2C)c1` are within 1.5-fold of each other in XC50: 171 nM for the first, 173 nM for the second.

`CC(C)N1CCC(N(Cc2ccc(-c3ccc(C(F)(F)F)cc3)cc2)C(=O)Cn2c(CCc3cccc(F)c3F)cc(=O)c3ccccc32)CC1` and `COCCNCc1ccc(-c2ccc(CN(C(=O)NC3CCCCC3)C3CCN(Cc4ccccc4)CC3)cc2)cc1` are within 1.5-fold of each other in XC50: 850 nM for the first, 960 nM for the second.

First: N=C(N)c1cccc(-c2cc(-c3cccc(C(=N)N)c3)on2)c1
Second: Nc1c2ccccc2nc2ccc(-c3ccccc3)cc12
The XC50 of the first is 1.6-fold lower: 86 nM for the first, 140 nM for the second.

Compared with `COc1ccc(NC(=O)/C=C/c2cc(F)cc(C(F)(F)F)c2)cc1OCCN(C(C)C)C(C)C`, `Cc1cc(C(=O)Nc2ccc3c(c2)CCN3C2CCN(Cc3cc(F)cc(F)c3F)C2)no1` (configuration not stated) is 2.4-fold lower in XC50: 669 nM for the first, 282 nM for the second.

Going from `COc1ccc2c(NN=Cc3ccccc3F)ccnc2c1` to `COc1cccc2c(NN=Cc3ccc(Cl)cc3)ccnc12`, the XC50 rises from 213 nM to 814 nM (3.8-fold).

`Cc1cccc2nc(-c3cccc(-c4ccc(NC(=O)Cc5c[nH]cn5)cc4)c3)[nH]c12` and `Cc1cccc2nc(-c3cccc(-c4ccc(NC(=O)C5CC(=O)Nc6ccccc65)cc4)c3)[nH]c12` (configuration not stated) are within 1.5-fold of each other in XC50: 688 nM for the first, 685 nM for the second.

Compared with `CCNc1cc(C(=O)N[C@@H](Cc2ccccc2)[C@H](O)CNC2(Cc3cccc(Cl)c3)CCC2)cc(N2CCCCS2(=O)=O)c1`, `CCc1cn(C)c2c(N3CCCC3=O)cc(C(=O)N[C@@H](Cc3ccccc3)[C@H](O)CNC3CCCCC3)cc12` is 10-fold lower in XC50: 1180 nM for the first, 118 nM for the second.

Going from `CC1(C)N=C(N)N=C(N)N1c1cc(Cl)c(Cl)c(Cl)c1` to `COc1cc(C(=O)NC2CCc3ccccc32)cc(Cl)c1OC` (configuration not stated), the XC50 rises from 11.4 nM to 1100 nM (96-fold).

`CCCNCc1ccc(-c2ccc(CN(CCOC)C(=O)CCCOCc3ccccc3)cc2)nc1` and `Cc1cc(C(=O)N(Cc2ccc(-c3ccc(CNCCc4ccc(S(C)(=O)=O)cc4)cn3)cc2)C(C)CN(C)C)ccc1[N+](=O)[O-]` (configuration not stated) are within 1.5-fold of each other in XC50: 1160 nM for the first, 789 nM for the second.

Going from `O=C(Nc1ccc(N2CCCN(Cc3cccc(F)c3)CC2)cc1)c1ccccc1` to `c1ccc(CN2CCN(CCCCNc3c4ccccc4nc4ccccc34)CC2)cc1`, the XC50 falls from 961 nM to 117 nM (8.2-fold).

First: CCc1cccc2c(C#N)cn(CC(=O)NCCc3ccccc3)c12
Second: O=C(OCc1ccccc1)N1CCc2c([nH]c3ccccc23)C1CCC(F)(F)F (configuration not stated)
The XC50 of the first is 2.1-fold higher: 887 nM for the first, 425 nM for the second.

`CC(C)(CNCc1ccc(C(F)(F)F)cc1)c1nc(-c2ccc(Cl)c(O)c2)c(-c2ccncc2)[nH]1` and `O=C(Nc1ccc(-c2cccc(-c3nc4cc(C(F)(F)F)ccc4[nH]3)c2)cc1)c1ccncc1` are within 1.5-fold of each other in XC50: 734 nM for the first, 664 nM for the second.

`CC(c1cccc(S(=O)(=O)NCc2ccc(Cl)cc2Cl)c1)N1CCC(N2CCCCC2)CC1` (configuration not stated) and `CC(C)CNC(=O)c1cncc(-c2ccc(CN3CCC(N4CCCC4)CC3)cc2)c1` are within 1.5-fold of each other in XC50: 747 nM for the first, 689 nM for the second.

`COc1ccc(-c2cncc(-c3ccc(OC)c(OC)c3)n2)cc1OC` and `COc1cc(Nc2ncc3c(C)nc(-c4cc5ccccc5[nH]4)n3n2)cc(OC)c1OC` are within 1.5-fold of each other in XC50: 777 nM for the first, 1020 nM for the second.

First: CC(Sc1nc(-c2ccccc2)c(-c2ccccc2)o1)C(=O)NC1CC1 (configuration not stated)
Second: c1ccc(-c2cc(NCc3cccc4ccccc34)c3[nH]ncc3n2)cc1
The XC50 of the first is 1.6-fold higher: 843 nM for the first, 518 nM for the second.

`O=C(O)CCCN1CCCC(=C(c2ccccc2)c2ccccc2)C1` and `COc1ccc(NC(=O)[C@H](Cc2ccccc2)Nc2cc(C)nc(NCCN3CCCC3)n2)cc1` are within 1.5-fold of each other in XC50: 1190 nM for the first, 1390 nM for the second.

First: COc1ccc(C(=O)NCc2ccccc2-c2ccc(C(C)(C)C)cc2)cc1O
Second: COc1ccccc1N1CCN(C(C(=O)NCc2ccc(C)cc2)c2ccc(C)cc2)CC1 (configuration not stated)
The XC50 of the first is 9.4-fold lower: 99.6 nM for the first, 932 nM for the second.

Compared with `O=C(Cc1ccc(-c2ccccc2)cc1)N[C@H]1CCN(Cc2ccc(OCCCN3CCCCC3)cc2)C1`, `CC(C)CNCc1ccc(-c2cccc(CNC3CCN(Cc4ccccc4)CC3)c2)cc1` is 3.2-fold lower in XC50: 772 nM for the first, 239 nM for the second.

First: Nc1cc(-c2cc3c(OCc4ccccc4)cccc3[nH]2)ccn1
Second: CCCC(CNCc1cccc(I)c1)CNc1cc(=O)c2ccccc2[nH]1 (configuration not stated)
The XC50 of the first is 2.5-fold higher: 1190 nM for the first, 471 nM for the second.

`O=S(=O)(/C=C/c1ccccc1)N(Cc1ccc(-c2ccc(CNCCc3ccccc3)cc2)cc1)CC1CCCCN1` (configuration not stated) and `CN(CCc1ccccc1)c1ncc(-c2ccccc2CNCc2ccccc2O)cn1` are within 1.5-fold of each other in XC50: 794 nM for the first, 1020 nM for the second.

Compared with `COc1cc2nc(NCCn3cccn3)nc(NCCc3ccccc3)c2cc1OC`, `c1ccc(CNCCn2c(-c3ccc4c(c3)CCO4)nc3c(N4CCCC4)cccc32)cc1` is 4-fold higher in XC50: 281 nM for the first, 1130 nM for the second.

Compared with `COc1ccc2nccc(CCN3CC(O)C(CNCc4ccc5c(n4)NC(=O)CS5)C3)c2n1` (configuration not stated), `COc1ccc(CNCCc2cccs2)cc1-c1ccc(S(=O)(=O)NCCN2CCCC2)s1` is 1.7-fold lower in XC50: 1460 nM for the first, 877 nM for the second.

`COc1ccccc1NC(=O)c1cc(C(=O)c2cc(Cl)ccc2O)cn(-c2ccccc2OC)c1=O` and `O=C(c1cc(C(=O)NCc2ccc(Cl)cc2)c(=O)n(Cc2ccc(Cl)cc2)c1)c1cc(F)ccc1O` are within 1.5-fold of each other in XC50: 943 nM for the first, 949 nM for the second.

`CCOc1cc(C(C)C)ccc1C1CCN(CCCCNC(=O)c2ccc(NC(=O)c3ccc(Cl)cc3)cc2)CC1` and `O=C(NCc1ccc(Cl)cc1)c1ccc(C(=O)NCC2CCCN2CC2CCCCC2)cc1` (configuration not stated) are within 1.5-fold of each other in XC50: 813 nM for the first, 854 nM for the second.

`CCOCc1cnc(C)nc1NCC(=O)c1c(C)[nH]c2cc(C)ccc12` and `Cc1ccc(F)c(OC2CCN(c3ccc(C(=O)NC4CC4)cn3)CC2)c1` are within 1.5-fold of each other in XC50: 1210 nM for the first, 823 nM for the second.

Compared with `O=C(Nc1ccc(C(F)(F)F)cc1)NC1CCN(c2ccnc3ccccc23)CC1`, `O=C(NC1CCC(CCN2Cc3cccc(C(F)(F)F)c3C2)CC1)c1cccc(-c2cccnc2)c1` (configuration not stated) is 5.5-fold higher in XC50: 185 nM for the first, 1020 nM for the second.

Compared with `C[C@H](NC(=O)[C@H](CCCCNC(=O)OC(C)(C)C)NC(=O)OC(C)(C)c1ccc(-c2ccccc2)cc1)C(=O)OCc1ccccc1`, `O=C(Nc1cccc(-c2ccc(-c3nc4cc(C(F)(F)F)ccc4[nH]3)cc2)c1)c1csnn1` is 3.8-fold higher in XC50: 181 nM for the first, 686 nM for the second.

`COc1ccc(-c2ncnc(C(F)(F)F)c2-c2ccc(Cl)cc2)c(O)c1` and `OCc1ccc2nc3c(cc2c1)-c1cccc2cccc-3c12` are within 1.5-fold of each other in XC50: 805 nM for the first, 664 nM for the second.

Compared with `CC(CNC(=N)c1cccc(C(=N)NCC(C)Oc2cccc(C3CCCCC3)c2)n1)Oc1cccc(C2CCCCC2)c1` (configuration not stated), `O=C(N[C@@H](CC1CCCCC1)C(=O)NCCN1CCCC1)c1ccc(O)c(-c2ccc(Cl)c(Cl)c2)c1` is 2.9-fold lower in XC50: 917 nM for the first, 312 nM for the second.

`Cc1cc(=O)c(C2CCC(c3ccc(Cl)cc3)CC2)c(C)[nH]1` (configuration not stated) and `Cc1cccc(N2CCN(Cc3cc(Cl)ccc3O)CC2)c1C` are within 1.5-fold of each other in XC50: 743 nM for the first, 771 nM for the second.

`O=C(Nc1ccccc1-c1nc2ccccc2s1)C(Cl)(Cl)Cl` and `Fc1ccc2nc(Nc3nc(-c4ccccn4)cs3)sc2c1` are within 1.5-fold of each other in XC50: 638 nM for the first, 560 nM for the second.

`Cc1onc(-c2c(Cl)cccc2Cl)c1C(=O)N1CCc2cc3nccc(N4CCN5CCC[C@H]5C4)c3cc21` and `Cc1cc(N(CCO)CCCN2CCCCC2)nc(Nc2ccc(Cl)cc2)n1` are within 1.5-fold of each other in XC50: 768 nM for the first, 547 nM for the second.

`CN(CCCCCNC(=O)/C=C/c1ccc(Cl)c(Cl)c1)CCc1c[nH]c2ccccc12` and `O=c1cc(NCCCNC2CCOc3c(Cl)cc(Cl)cc32)[nH]c2ccccc12` (configuration not stated) are within 1.5-fold of each other in XC50: 874 nM for the first, 724 nM for the second.

First: Cc1ccc(O)c(-c2cc(C(=O)Nc3ccc(S(=O)(=O)N4CCCC(C)C4)cc3)[nH]n2)c1 (configuration not stated)
Second: Cc1cccc2nc(-c3ccc(-c4cccc(CNCCc5ccncc5)c4)s3)[nH]c12
The XC50 of the first is 5.1-fold higher: 707 nM for the first, 138 nM for the second.

Going from `Clc1ncnc2ncn(Cc3cccc(Br)c3)c12` to `O=C(NC12CC3CC(CC(C3)C1)C2)C(=O)c1c[nH]c2ccccc12`, the XC50 falls from 1060 nM to 232 nM (4.6-fold).
